Measured values as given in patent publication US20110136829A1, “3-(N-HETEROCYCLYL)-PYRROLIDINYL-PHENYL-OXAZOLIDINONES AS ANTIBACTERIAL AGENTS” (FERRER INTERNACIONAL, S.A., priority 2008, published 2011).
In brackets after ≈: the same amount, converted by molar mass.

Key:
E. faecium LNZ-R LR-4 = test: MIC by standard micro dilution method (NCCLS M7-A5); type: cell-based; conditions: Enterococcus faecium; linezolid-resistant strain; Mueller-Hinton medium, 16-24 h at 35° C.; read-out: MIC, microorganism (9) E. faecium LNZ-R LR-4
[1] = tested on: S. pneumoniae ATCC49619 PR; test: as above; type: cell-based; conditions: Streptococcus pneumoniae, 20-24 h at 35° C., 5% CO2, read-out: MIC, microorganism (2) S. pneumoniae ATCC49619 PR
H. influenzae ATCC49247 = test: as above; type: cell-based; conditions: Haemophilus influenzae, read-out: MIC, microorganism (6) H. influenzae ATCC49247
[2] = tested on: B. fragilis sp. fragilis ATCC25285; test: as above; type: cell-based; conditions: Bacteroides fragilis, anaerobic strain, Brucella Blood medium supplemented, read-out: MIC, microorganism (7) B. fragilis sp. fragilis ATCC25285
S. haemolyticus = test: as above; type: cell-based; conditions: Staphylococcus haemolyticus; Mueller-Hinton medium (cation-adjusted), 16-24 h at 35° C.; read-out: MIC, microorganism (5) S. haemolyticus
S. aureus LNZ-R 432 = test: as above; type: cell-based; conditions: Staphylococcus aureus, LNZR432; linezolid-resistant strain; Mueller-Hinton medium, 16-24 h at 35° C.; read-out: MIC, microorganism (4) S. aureus LNZ-R 432
M. catarrhalis HCI-78 = test: as above; type: cell-based; conditions: Moraxella catarrhalis, HCI78; 20-24 h at 35° C., 5% CO2; read-out: MIC, microorganism (8) M. catarrhalis HCI-78
S. aureus ATCC25923 MS = test: as above; type: cell-based; conditions: Staphylococcus aureus, Mueller-Hinton medium (cation-adjusted), 16-24 h at 35° C., read-out: MIC, microorganism (1) S. aureus ATCC25923 MS
E. faecium ATCC51559 MDR = test: as above; type: cell-based; conditions: Enterococcus faecium, Mueller-Hinton medium (cation-adjusted), 16-24 h at 35° C., read-out: MIC, microorganism (3) E. faecium ATCC51559 MDR
[3] = tested on: Moraxella, Pasteurella and Bacteroides spp.; conditions: background art; cited from earlier work
[4] = tested on: other Gram-negative bacteria; conditions: background art; cited from earlier work

| SMILES | MIC (E. faecium LNZ-R LR-4) | MIC [1] | MIC (H. influenzae ATCC49247) | MIC [2] | MIC (S. haemolyticus) | MIC (S. aureus LNZ-R 432) | MIC (M. catarrhalis HCI-78) | MIC (S. aureus ATCC25923 MS) | MIC (E. faecium ATCC51559 MDR) | MICS for Moraxella, Pasteurella and Bacteroides spp. [3] | susceptibility of other Gram-negative bacteria [4] |
| --- | --- | --- | --- | --- | --- | --- | --- | --- | --- | --- | --- |
| CC(=O)NC[C@H]1CN(c2ccc(N3CCC(n4ccnn4)C3)c(F)c2)C(=O)O1 (stereo partly drawn) [Ex. 3, N-((5S)-3-{3-fluoro-4-[3-(1-triazolyl)pyrrolidin-1-yl]-phenyl}-2-oxo-5-oxazolidinylmethyl)acetamide] | 8 µg/mL (≈ 20.6 µM) | 1 µg/mL (≈ 2.57 µM) | 4 µg/mL (≈ 10.3 µM) | 1 µg/mL (≈ 2.57 µM) | 4 µg/mL (≈ 10.3 µM) | 16 µg/mL (≈ 41.2 µM) | 1 µg/mL (≈ 2.57 µM) | 1 µg/mL (≈ 2.57 µM) | 0.5 µg/mL (≈ 1.29 µM) | – | – |
| CC(=O)NC[C@H]1CN(c2ccc(N3CCC(n4cc([N+](=O)[O-])cn4)C3)c(F)c2)C(=O)O1 (stereo partly drawn) [Ex. 9, N-((5S)-3-{3-fluoro-4-[3-(4-nitropyrazol)pyrrolidinyl]-phenyl}-2-oxo-5-oxazolidinylmethyl)acetamide] | 4 µg/mL (≈ 9.25 µM) | 0.25 µg/mL (≈ 0.578 µM) | 2 µg/mL (≈ 4.63 µM) | 0.5 µg/mL (≈ 1.16 µM) | 1 µg/mL (≈ 2.31 µM) | 8 µg/mL (≈ 18.5 µM) | 1 µg/mL (≈ 2.31 µM) | 1 µg/mL (≈ 2.31 µM) | 1 µg/mL (≈ 2.31 µM) | – | – |
| CC(=O)NC[C@H]1CN(c2ccc(N3CCC(n4cc(-c5ccncn5)cn4)C3)c(F)c2)C(=O)O1 (stereo partly drawn) [Ex. 11, N-((5S)-3-{3-fluoro-4-[3-(4-pyrimidin-4-yl-pyrazol-1-yl)pyrrolidin-1-yl]-phenyl}-2-oxo-5-oxazolidinylmethyl)acetamide] | 8 µg/mL (≈ 17.2 µM) | 0.125 µg/mL (≈ 0.269 µM) | 4 µg/mL (≈ 8.59 µM) | 0.5 µg/mL (≈ 1.07 µM) | – | 2 µg/mL (≈ 4.3 µM) | 0.5 µg/mL (≈ 1.07 µM) | 0.5 µg/mL (≈ 1.07 µM) | 0.25 µg/mL (≈ 0.537 µM) | – | – |
| CC(=O)NC[C@H]1CN(c2ccc(N3CCC(n4nnc(-c5cccs5)n4)C3)c(F)c2)C(=O)O1 (stereo partly drawn) [Ex. 15, N-((5S)-3-{3-fluoro-4-[3-(5-thiophen-2-yl-tetrazol-2-yl)pyrrolidin-1-yl]-phenyl}-2-oxo-5-oxazolidinylmethyl)acetamide] | 8 µg/mL (≈ 17 µM) | 0.125 µg/mL (≈ 0.265 µM) | 8 µg/mL (≈ 17 µM) | 0.5 µg/mL (≈ 1.06 µM) | – | 4 µg/mL (≈ 8.48 µM) | 2 µg/mL (≈ 4.24 µM) | 0.5 µg/mL (≈ 1.06 µM) | 0.25 µg/mL (≈ 0.53 µM) | – | – |
| CC(=O)NC[C@H]1CN(c2ccc(N3CCC(n4cc(Br)cn4)C3)c(F)c2)C(=O)O1 (stereo partly drawn) [Ex. 17, N-((5S)-3-{3-fluoro-4-[3-(4-bromopyrazol-1-yl)pyrrolidin-1-yl]-phenyl}-2-oxo-5-oxazolidinylmethyl)acetamide] | 1 µg/mL (≈ 2.14 µM) | 0.25 µg/mL (≈ 0.536 µM) | 1 µg/mL (≈ 2.14 µM) | 0.5 µg/mL (≈ 1.07 µM) | 1 µg/mL (≈ 2.14 µM) | 8 µg/mL (≈ 17.2 µM) | 2 µg/mL (≈ 4.29 µM) | 1 µg/mL (≈ 2.14 µM) | 0.5 µg/mL (≈ 1.07 µM) | – | – |
| CC(=O)NC[C@H]1CN(c2ccc(N3CCC(n4cc(-c5ccncc5)cn4)C3)c(F)c2)C(=O)O1 (stereo partly drawn) [Ex. 18, N-((5S)-3-{3-fluoro-4-[3-(4-pyridin-4-yl-pyrazol-1-yl)pyrrolidin-1-yl]-phenyl}-2-oxo-5-oxazolidinylmethyl)acetamide] | 8 µg/mL (≈ 17.2 µM) | 0.06 µg/mL (≈ 0.129 µM) | 4 µg/mL (≈ 8.61 µM) | 0.25 µg/mL (≈ 0.538 µM) | – | 2 µg/mL (≈ 4.31 µM) | 0.5 µg/mL (≈ 1.08 µM) | 0.5 µg/mL (≈ 1.08 µM) | 0.25 µg/mL (≈ 0.538 µM) | – | – |
| CC(=O)NC[C@H]1CN(c2ccc(N3CCC(n4cc(-c5ccc([N+](=O)[O-])cc5)cn4)C3)c(F)c2)C(=O)O1 (stereo partly drawn) [Ex. 19, N-[(5S)-3-(3-fluoro-4-{3-[4-(4-nitrophenyl)-pyrazol-1-yl]pyrrolidin-1-yl}-phenyl)-2-oxo-5-oxazolidinylmethyl]acetamide] | 64 µg/mL (≈ 126 µM) | 0.125 µg/mL (≈ 0.246 µM) | 4 µg/mL (≈ 7.87 µM) | 1 µg/mL (≈ 1.97 µM) | – | 2 µg/mL (≈ 3.93 µM) | 1 µg/mL (≈ 1.97 µM) | 0.5 µg/mL (≈ 0.983 µM) | 0.25 µg/mL (≈ 0.492 µM) | – | – |
| CC(=O)NC[C@H]1CN(c2ccc(N3CCC(n4ccc(C(F)(F)F)n4)C3)c(F)c2)C(=O)O1 (stereo partly drawn) [Ex. 26, N-((5S)-3-{3-fluoro-4-[3-(3-trifluoromethyl-pyrazol-1-yl)pyrrolidin-1-yl]-phenyl}-2-oxo-5-oxazolidinylmethyl)acetamide] | 2 µg/mL (≈ 4.39 µM) | 0.5 µg/mL (≈ 1.1 µM) | 1 µg/mL (≈ 2.2 µM) | 1 µg/mL (≈ 2.2 µM) | 1 µg/mL (≈ 2.2 µM) | 16 µg/mL (≈ 35.1 µM) | 2 µg/mL (≈ 4.39 µM) | 2 µg/mL (≈ 4.39 µM) | 1 µg/mL (≈ 2.2 µM) | – | – |
| CC(=O)NC[C@H]1CN(c2ccc(N3CCOCC3)c(F)c2)C(=O)O1 [Linezolid, N-[[(5S)-3-[3-fluoro-4-(4-morpholinyl)phenyl]-2-oxo-5-oxazolidinyl]methyl]acetamide, reference compound] | 64 µg/mL (≈ 190 µM) | 1 µg/mL (≈ 2.96 µM) | 16 µg/mL (≈ 47.4 µM) | 2 µg/mL (≈ 5.93 µM) | 128 µg/mL (≈ 379 µM) | 16 to 32 µg/mL (≈ 47.4 to 94.9 µM) | 2 µg/mL (≈ 5.93 µM) | 1 µg/mL (≈ 2.96 µM) | 0.5 µg/mL (≈ 1.48 µM) | 2 to 8 µg/mL | resistant |
